Test results as given in the NIST ThermoML archive (doi:10.1021/acs.jced.5b00242).
± gives the expanded uncertainty stated by the source.

Legend:
[1] = refractive index (Na D-line) (dimensionless); xn = mol fraction of the nth substance listed; settings: 101 kPa, Liquid, Standard Abbe refractometry
[2] = xn = mol fraction of the nth substance listed; settings: 101 kPa, Liquid; for viscosity: Stabinger Viscometer; for mass density: Vibrating tube method

## CC[n+]1ccn(C)c1.N[C@@H](CO)C(=O)[O-] [3-ethyl-1-methyl-1H-imidazolium L-serinate] + CCn1cc[n+](C)c1.N#C[C-](C#N)C#N
[1]; 293.15 K, x2 = 0
  refractive index: 1.52699 ± 0.0041
[1]; 293.15 K, x2 = 0.2502
  refractive index: 1.52075 ± 0.0011
[1]; 293.15 K, x2 = 0.5005
  refractive index: 1.51865 ± 0.00078
[1]; 293.15 K, x2 = 0.7497
  refractive index: 1.51552 ± 0.001
[1]; 298.15 K, x2 = 0
  refractive index: 1.52565 ± 0.0041
[1]; 298.15 K, x2 = 0.2502
  refractive index: 1.51929 ± 0.0011
[1]; 298.15 K, x2 = 0.5005
  refractive index: 1.51718 ± 0.00078
[1]; 298.15 K, x2 = 0.7497
  refractive index: 1.5139 ± 0.001
[1]; 303.15 K, x2 = 0
  refractive index: 1.52429 ± 0.0041
[1]; 303.15 K, x2 = 0.2502
  refractive index: 1.51784 ± 0.0011
[1]; 303.15 K, x2 = 0.5005
  refractive index: 1.51563 ± 0.00078
[1]; 303.15 K, x2 = 0.7497
  refractive index: 1.51228 ± 0.001
[1]; 308.15 K, x2 = 0
  refractive index: 1.52294 ± 0.0041
[1]; 308.15 K, x2 = 0.2502
  refractive index: 1.51636 ± 0.0011
[1]; 308.15 K, x2 = 0.5005
  refractive index: 1.51409 ± 0.00078
[1]; 308.15 K, x2 = 0.7497
  refractive index: 1.51064 ± 0.001
[1]; 313.15 K, x2 = 0
  refractive index: 1.52159 ± 0.0041
[1]; 313.15 K, x2 = 0.2502
  refractive index: 1.51489 ± 0.0011
[1]; 313.15 K, x2 = 0.5005
  refractive index: 1.51254 ± 0.00078
[1]; 313.15 K, x2 = 0.7497
  refractive index: 1.50899 ± 0.001
[1]; 318.15 K, x2 = 0
  refractive index: 1.52022 ± 0.0041
[1]; 318.15 K, x2 = 0.2502
  refractive index: 1.51343 ± 0.0011
[1]; 318.15 K, x2 = 0.5005
  refractive index: 1.51099 ± 0.00078
[1]; 318.15 K, x2 = 0.7497
  refractive index: 1.50736 ± 0.001
[1]; 323.15 K, x2 = 0
  refractive index: 1.51887 ± 0.0041
[1]; 323.15 K, x2 = 0.2502
  refractive index: 1.51199 ± 0.0011
[1]; 323.15 K, x2 = 0.5005
  refractive index: 1.50943 ± 0.00078
[1]; 323.15 K, x2 = 0.7497
  refractive index: 1.50574 ± 0.001
[1]; 328.15 K, x2 = 0
  refractive index: 1.51755 ± 0.0041
[1]; 328.15 K, x2 = 0.2502
  refractive index: 1.51051 ± 0.0011
[1]; 328.15 K, x2 = 0.5005
  refractive index: 1.50784 ± 0.00078
[1]; 328.15 K, x2 = 0.7497
  refractive index: 1.50408 ± 0.001
[1]; 333.15 K, x2 = 0
  refractive index: 1.5162 ± 0.0041
[1]; 333.15 K, x2 = 0.2502
  refractive index: 1.50902 ± 0.0011
[1]; 333.15 K, x2 = 0.5005
  refractive index: 1.50632 ± 0.00078
[1]; 333.15 K, x2 = 0.7497
  refractive index: 1.50253 ± 0.001
[1]; 338.15 K, x2 = 0
  refractive index: 1.51486 ± 0.0041
[1]; 338.15 K, x2 = 0.2502
  refractive index: 1.50755 ± 0.0011
[1]; 338.15 K, x2 = 0.5005
  refractive index: 1.50475 ± 0.00078
[1]; 338.15 K, x2 = 0.7497
  refractive index: 1.50093 ± 0.001
[1]; 343.15 K, x2 = 0
  refractive index: 1.51353 ± 0.0041
[1]; 343.15 K, x2 = 0.2502
  refractive index: 1.50611 ± 0.0011
[1]; 343.15 K, x2 = 0.5005
  refractive index: 1.50324 ± 0.00078
[1]; 343.15 K, x2 = 0.7497
  refractive index: 1.49932 ± 0.001
[1]; 348.15 K, x2 = 0
  refractive index: 1.5122 ± 0.0041
[1]; 348.15 K, x2 = 0.2502
  refractive index: 1.50459 ± 0.0011
[1]; 348.15 K, x2 = 0.5005
  refractive index: 1.50173 ± 0.00078
[1]; 348.15 K, x2 = 0.7497
  refractive index: 1.49774 ± 0.001
[1]; 353.15 K, x2 = 0
  refractive index: 1.51084 ± 0.0041
[1]; 353.15 K, x2 = 0.2502
  refractive index: 1.50318 ± 0.0011
[1]; 353.15 K, x2 = 0.5005
  refractive index: 1.50018 ± 0.00078
[1]; 353.15 K, x2 = 0.7497
  refractive index: 1.49615 ± 0.001
[2]; 293.15 K, x2 = 0
  viscosity: 3796.8 ± 560 mPa·s
  mass density: 1206.8 ± 18 kg/m3
[2]; 293.15 K, x2 = 0.2502
  viscosity: 586.84 ± 75 mPa·s
  mass density: 1177.2 ± 17 kg/m3
[2]; 293.15 K, x2 = 0.5005
  viscosity: 168.52 ± 9.8 mPa·s
  mass density: 1141.8 ± 16 kg/m3
[2]; 293.15 K, x2 = 0.7497
  viscosity: 42.01 ± 1.1 mPa·s
  mass density: 1112.9 ± 16 kg/m3
[2]; 298.15 K, x2 = 0
  viscosity: 2235.5 ± 290 mPa·s
  mass density: 1203.7 ± 18 kg/m3
[2]; 298.15 K, x2 = 0.2502
  viscosity: 384.17 ± 46 mPa·s
  mass density: 1173.6 ± 17 kg/m3
[2]; 298.15 K, x2 = 0.5005
  viscosity: 120.68 ± 6.2 mPa·s
  mass density: 1138.4 ± 16 kg/m3
[2]; 298.15 K, x2 = 0.7497
  viscosity: 33.37 ± 0.85 mPa·s
  mass density: 1109.3 ± 16 kg/m3
[2]; 303.15 K, x2 = 0
  viscosity: 1376.2 ± 160 mPa·s
  mass density: 1200.5 ± 18 kg/m3
[2]; 303.15 K, x2 = 0.2502
  viscosity: 261.07 ± 30 mPa·s
  mass density: 1170.1 ± 17 kg/m3
[2]; 303.15 K, x2 = 0.5005
  viscosity: 88.95 ± 4.2 mPa·s
  mass density: 1135 ± 16 kg/m3
[2]; 303.15 K, x2 = 0.7497
  viscosity: 26.98 ± 0.69 mPa·s
  mass density: 1105.8 ± 16 kg/m3
[2]; 308.15 K, x2 = 0
  viscosity: 882.82 ± 88 mPa·s
  mass density: 1197.3 ± 18 kg/m3
[2]; 308.15 K, x2 = 0.2502
  viscosity: 183.69 ± 20 mPa·s
  mass density: 1166.8 ± 17 kg/m3
[2]; 308.15 K, x2 = 0.5005
  viscosity: 67.28 ± 3 mPa·s
  mass density: 1131.7 ± 16 kg/m3
[2]; 308.15 K, x2 = 0.7497
  viscosity: 22.2 ± 0.57 mPa·s
  mass density: 1102.3 ± 16 kg/m3
[2]; 313.15 K, x2 = 0
  viscosity: 588.27 ± 51 mPa·s
  mass density: 1194 ± 18 kg/m3
[2]; 313.15 K, x2 = 0.2502
  viscosity: 133.41 ± 14 mPa·s
  mass density: 1163.5 ± 17 kg/m3
[2]; 313.15 K, x2 = 0.5005
  viscosity: 52.28 ± 2.3 mPa·s
  mass density: 1128.4 ± 16 kg/m3
[2]; 313.15 K, x2 = 0.7497
  viscosity: 18.36 ± 0.47 mPa·s
  mass density: 1098.9 ± 16 kg/m3
[2]; 318.15 K, x2 = 0
  viscosity: 405.12 ± 30 mPa·s
  mass density: 1190.9 ± 18 kg/m3
[2]; 318.15 K, x2 = 0.2502
  viscosity: 98.94 ± 10 mPa·s
  mass density: 1160.5 ± 17 kg/m3
[2]; 318.15 K, x2 = 0.5005
  viscosity: 41.25 ± 1.8 mPa·s
  mass density: 1125.1 ± 16 kg/m3
[2]; 318.15 K, x2 = 0.7497
  viscosity: 15.72 ± 0.4 mPa·s
  mass density: 1095.6 ± 15 kg/m3
[2]; 323.15 K, x2 = 0
  viscosity: 287.6 ± 18 mPa·s
  mass density: 1187.8 ± 18 kg/m3
[2]; 323.15 K, x2 = 0.2502
  viscosity: 75.39 ± 7.8 mPa·s
  mass density: 1157.3 ± 17 kg/m3
[2]; 323.15 K, x2 = 0.5005
  viscosity: 33.28 ± 1.5 mPa·s
  mass density: 1121.8 ± 16 kg/m3
[2]; 323.15 K, x2 = 0.7497
  viscosity: 13.48 ± 0.34 mPa·s
  mass density: 1092.2 ± 15 kg/m3
[2]; 328.15 K, x2 = 0
  viscosity: 209.91 ± 11 mPa·s
  mass density: 1184.7 ± 18 kg/m3
[2]; 328.15 K, x2 = 0.2502
  viscosity: 58.75 ± 6 mPa·s
  mass density: 1154 ± 17 kg/m3
[2]; 328.15 K, x2 = 0.5005
  viscosity: 27.29 ± 1.2 mPa·s
  mass density: 1118.5 ± 16 kg/m3
[2]; 328.15 K, x2 = 0.7497
  viscosity: 11.68 ± 0.3 mPa·s
  mass density: 1088.9 ± 15 kg/m3
[2]; 333.15 K, x2 = 0
  viscosity: 157.29 ± 7.5 mPa·s
  mass density: 1181.7 ± 18 kg/m3
[2]; 333.15 K, x2 = 0.2502
  viscosity: 46.9 ± 4.8 mPa·s
  mass density: 1150.8 ± 17 kg/m3
[2]; 333.15 K, x2 = 0.5005
  viscosity: 22.78 ± 1 mPa·s
  mass density: 1115.1 ± 16 kg/m3
[2]; 333.15 K, x2 = 0.7497
  viscosity: 10.07 ± 0.26 mPa·s
  mass density: 1085.6 ± 15 kg/m3
[2]; 338.15 K, x2 = 0
  viscosity: 119.86 ± 5 mPa·s
  mass density: 1178.7 ± 18 kg/m3
[2]; 338.15 K, x2 = 0.2502
  viscosity: 37.79 ± 3.9 mPa·s
  mass density: 1147.6 ± 17 kg/m3
[2]; 338.15 K, x2 = 0.5005
  viscosity: 19.18 ± 0.85 mPa·s
  mass density: 1111.9 ± 16 kg/m3
[2]; 338.15 K, x2 = 0.7497
  viscosity: 9.03 ± 0.23 mPa·s
  mass density: 1082.2 ± 15 kg/m3
[2]; 343.15 K, x2 = 0
  viscosity: 93.36 ± 3.5 mPa·s
  mass density: 1175.7 ± 18 kg/m3
[2]; 343.15 K, x2 = 0.2502
  viscosity: 31.01 ± 3.2 mPa·s
  mass density: 1144.4 ± 17 kg/m3
[2]; 343.15 K, x2 = 0.5005
  viscosity: 16.37 ± 0.73 mPa·s
  mass density: 1108.6 ± 16 kg/m3
[2]; 343.15 K, x2 = 0.7497
  viscosity: 8.03 ± 0.21 mPa·s
  mass density: 1078.9 ± 15 kg/m3
[2]; 348.15 K, x2 = 0
  viscosity: 74.03 ± 2.5 mPa·s
  mass density: 1172.8 ± 18 kg/m3
[2]; 348.15 K, x2 = 0.2502
  viscosity: 25.75 ± 2.6 mPa·s
  mass density: 1141.2 ± 17 kg/m3
[2]; 348.15 K, x2 = 0.5005
  viscosity: 14.12 ± 0.63 mPa·s
  mass density: 1105.2 ± 16 kg/m3
[2]; 348.15 K, x2 = 0.7497
  viscosity: 7.19 ± 0.18 mPa·s
  mass density: 1075.7 ± 15 kg/m3
[2]; 353.15 K, x2 = 0
  viscosity: 59.91 ± 1.9 mPa·s
  mass density: 1169.7 ± 18 kg/m3
[2]; 353.15 K, x2 = 0.2502
  viscosity: 21.14 ± 2.2 mPa·s
  mass density: 1138 ± 17 kg/m3
[2]; 353.15 K, x2 = 0.5005
  viscosity: 12.31 ± 0.55 mPa·s
  mass density: 1101.8 ± 16 kg/m3
[2]; 353.15 K, x2 = 0.7497
  viscosity: 6.36 ± 0.16 mPa·s
  mass density: 1072.3 ± 15 kg/m3
